Experimental data published in patent publication US5061703A, “Adamantane derivatives in the prevention and treatment of cerebral ischemia” (priority 1989, dated 1991).
Several values for one entry are separate records, joined by “and”; a condition that tells them apart may be missing. Identical values can stand only once. Like-named read-outs stand apart in the source and are kept apart here.

What was measured:
[1] = molecular target: NMDA receptor-associated ionic channel (PCP/TCP binding site); assay: Displacement of TCP Binding (3H-TCP, membrane preparation of rat cortex)
Procedure: Phencyclidine (PCP), a known NMDA antagonist, binds to the NMDA receptor-associated ionic channel and blocks ionic transport (Garthwaite & Garthwaite, Neurosci. Lett. 83, 1987, 241-246).
The interaction between compounds of formula (I) and the PCP bond is studied in the following. In this test ^3 H-TCP, a PCP analogue, is used.
A membrane preparation of rat cortex is incubated with ^3 H-TCP which is an analogue of phencyclidine (PCP) (Quirion & Pert 1982, Eur. J. Pharmacol. 83:155). The interaction with the TCP binding is assessed for test compound no. 1 (1-amino-3,5-dimethyl adamantane) in a competitive experiment. […] The conclusion can be drawn that compound no. 1 binds to NMDA receptor channels at the same site as the NMDA antagonist PCP.

[2] = test system: NMDA receptor channel; assay: Blocking of NMDA Receptor Channels (patch-clamp, cultivated spinal marrow neurons); type: cell-based, mouse; conditions: 20 μM NMDA and 6 μM of adamantane derivative; current integrated 20 sec; means ± SEM
Procedure: In the following test it is shown that the compounds of formula (I) according to the invention are as effective as PCP in blocking the NMDA receptor channel.
In the patch-clamp experiment, the current flowing through NMDA-activated membrane channels of cultivated spinal marrow neurons (mouse) is measured (Hamill et al 1981, Pflugers Arch. 312: 85-100). After application of 20 μM NMDA, the current signal of the cell is integrated for 20 sec. and recorded as a control answer (Ac). During succeeding application of 20 μM NMDA and 6 μM of an adamantane derivative, the intensity of the substance effect can be determined as a relative change of the control answer (A/Ac -A=test answer).

[3] = test system: electrically induced convulsions; assay: Anticonvulsive Effect (supermaximum electroshock test in mice); type: in vivo, mouse; conditions: for ED50 / Anticonvulsive action (score), Mean: i.p.; for ED50: electroshock 40 min after application, estimated according to Litchfield and Wilcoxon; for Anticonvulsive action (score): i.p., 4, 12, 36, 108 and 324 mg/kg, protected animals added over all dosages, maximum = 25, individual scores; for Anticonvulsive action (score), Mean: mean of scores, maximum = 25
Procedure: 4, 12, 36, 108 and 324 mg/kg of the test substance is administered to mice by the intraperitoneal route (5 animals per dose). The supermaximum electroshock test is applied forty (40) minutes after application of the substance to investigate the anti-convulsive potential of the substance. The protected animals are added up over all dosages (score; maximum=25 animals).

[4] = test system: neurons in the CA1-CA4 region of the hippocampus; assay: Protection Against Cerebral Ischemia (carotid occlusion in rats, hippocampal histology); type: in vivo, rat; conditions: for damaged neurons, area CA1 / damaged neurons, area CA3 / damaged neurons, area CA4: single administration 1 h prior to ischemia, ± SEM
Procedure: Both carotid arteries are occluded in rats for 10 minutes. […] The ischemia is terminated by opening the carotids and reinfusion of the withdrawn blood. After seven days the brains of the test animals are histologically examined for cellular changes in the CA1-CA4 region of the hippocampus, and the percentage of destroyed neurons is determined.

[5] = test system: NMDA-induced mortality; assay: Protection Against NMDA-Induced Mortality (mice); type: in vivo, mouse; conditions: 200 mg/kg NMDA i.p.
Procedure: It is well known that, subsequent to cerebral ischemia, glutamate and aspartate levels increase massively in the brain. These excitatory aminoacids overstimulate the NMDA-subtype of the glutamate receptor thus leading to delayed neuronal death. A similar pathophysiological situation is obtained when mice are administered intraperitoneally with 200 mg/kg NMDA. This high dose will eventually cause 100% mortality in the animals (Leander et al. 1984, Brain Res. 448; 115-120).

[6] = test system: MK-801 binding site of the NMDA receptor channel; conditions: as reported in the foregoing publication (Kornhuber et al. 1989); cited from earlier work
[7] = test system: brain cells after cerebral ischemia; conditions: rats; Sauer et al. 1988; cited from earlier work
[8] = molecular target: MK-801 binding site of the NMDA receptor channel; assay: Displacement of [3H] MK-801 Binding in Human Brain Tissue (frontal cortex homogenates); conditions: [3H] MK-801 (3 nM), mean of triplicate experiments
Procedure: MK-801 binds to the ion channel associated with the NMDA receptor, as well as TCP does. This binding site is thought to mediate the neuroprotective effects of non-competitive NMDA-antagonists.
We have investigated whether the adamantane derivatives of the present invention are active at the MK-801 binding site. Tissue from frontal cortex was taken from patients at autopsy and homogenates were prepared. Inhibition of specific [^3 H] MK-801 binding (3 nM) by the test compounds was determined (see e.g. Kornhuber et al. 1989, Eur. J. Pharmacol. 166: 589-590).
wherein Ki is the inhibition constant and nM is nanomoles per liter. Mean values from triplicate experiments are given ± S.E.M.
The inhibition constant Ki is approximately equal to the concentration of the adamantane in nM required to displace 50% of the MK-801 specifically bound to the receptor.

[9] = Mus musculus, ip, 40 min, read-out: ED50

Row | SMILES | 1-A/Ac [2] | ED50 [3, 9] [mg/kg] | Anticonvulsive action (score) ([3]; 40 min) | Anticonvulsive action (score), Mean ([3]; 40 min) | Protected Animals ([5]; 25 mg/kg) | Protected Animals ([5]; 50 mg/kg) | Ki [8] [nM] | other results
1 | CC12CC3CC(C)(C1)CC(N)(C3)C2 [Compound no. 1, 1-amino-3,5-dimethyl adamantane] | 0.66 ± 0.05 | 16 | 18 and 16 and 15 | 16.3 | 6/8 | 8/8 |  | IC50 ([1]; membrane preparation of rat cortex, competitive experiment): 89 nM; displacement of TCP from the bond (in words) ([1]; rat cortex membranes): very effective; damaged neurons, area CA1 ([4]; 5 mg/kg (n = 5)): 83.0 ± 2.2%; damaged neurons, area CA3 ([4]; 5 mg/kg (n = 5)): 7.3 ± 1.8%; damaged neurons, area CA4 ([4]; 5 mg/kg (n = 5)): 3.7 ± 1.7%; damaged neurons, area CA3 ([4]; 20 mg/kg (n = 6)): 2.7 ± 1.0%; damaged neurons, area CA4 ([4]; 20 mg/kg (n = 6)): 0.6 ± 0.3%; damaged neurons, area CA1 ([4]; 20 mg/kg (n = 6), **p < 0.01 (U test)): 53.1 ± 6.1%; reduction of post-ischemic neuronal brain damage in the CA1 region (in words) ([4]; pre-ischemic application of 20 mg/kg, rat hippocampus): statistically significant; physiological parameters (e.g. blood pressure, body temperature) ([4]; rats, during ischemia test): not affected by the treatment; Protected Animals ([5]; 10 mg/kg): 3/8; potency compared with thirteen other clinically-used and centrally-acting drugs (in words) [6]: most potent compound
2 | C[C@]12N[C@H](Cc3ccccc31)c1ccccc12 [MK-801, 5-methyl-10,11-dihydro-5H-dibenzo[a,d]cycloheptene-5,10-imine, reference compound] | 0.60 ± 0.05 | < 1 | 25 | 25.0 |  |  |  | 
3 | c1ccc(C2(N3CCCCC3)CCCCC2)cc1 [PCP, Phencyclidine, reference compound] | 0.50 ± 0.04 |  | 19 | 19.0 |  |  |  | ED50 [3]: 9 mg/kg; prevention of destruction of brain cells after cerebral ischemia (in words) [7]: prevent the destruction of brain cells after cerebral ischemia in rats
4 | CCC12CC3CC(CC(N)(C3)C1)C2 [compound 2, 1-amino-3-ethyl adamantane] | 0.44 ± 0.08 | 30 | 15 and 14 and 12 | 13.7 |  |  |  | 
5 | CC(C)C12CC3CC(CC(N)(C3)C1)C2 [compound 3, 1-amino-3-isopropyl adamantane] | 0.58 ± 0.07 |  |  |  | 4/8 | 6/8 | 598 | 
6 | CCC12CC3CC(N)(C1)CC(CC)(C3)C2 [compound 4, 1-amino-3,5-diethyl adamantane] | 0.50 ± 0.11 | 24 | 16 and 11 | 14.3 | 5/8 | 7/8 | 189 | 
7 | CNC12CC3CC(C)(CC(C)(C3)C1)C2 [compound 5, 1-N-methylamino-3,5-dimethyl adamantane] | 0.56 ± 0.07 | 13 | 17 | 17.0 | 5/8 |  | 1610 | 
8 | CCNC12CC3CC(C)(CC(C)(C3)C1)C2 [compound 6, 1-N-ethylamino-3,5-dimethyl adamantane] | 0.38 ± 0.05 |  |  |  |  |  |  | 
9 | NC12CC3CC(C1)CC(C1CCCCC1)(C3)C2 [compound 7, 1-amino-3-cyclohexyl adamantane] | 0.25 ± 0.04 |  |  |  |  |  |  | 
10 | CCC12CC3(C)CC(C)(CC(N)(C3)C1)C2 [compound 8, 1-amino-3,5-dimethyl-7-ethyl adamantane] | 0.50 ± 0.03 |  |  |  |  |  |  | 
